Laboratory results taken from ChEMBL document CHEMBL1201862, “PubChem BioAssay data set” (2004).
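Grown in 96-well plates, cells were treated for 48 hours with each compound at five concentrations. Insufficient inhibition: endpoint recorded as highest concentration tested. At the GI50, growth is halved.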 Calls of active or inactive are those of the source. Cut-off read from the data, not from the text of the source: active = GI50 up to about 1.1 µM and inactive = higher. Where a SMILES comes first, the peptide text is derived from it. The star is where a group is joined. Boc = CC(C)(C)OC(=O)*

Assays:
Assay in all cases: NCI tumour cell line growth inhibition, 48 h
786-0 = tested on: 786-0
DU-145 = tested on: DU-145
HCT-116 = tested on: HCT-116
HOP-62 = tested on: HOP-62
Hs-578T = tested on: Hs-578T
IGROV-1 = tested on: IGROV-1
K562 = tested on: K562
LOX IMVI = tested on: LOX IMVI
M14 = tested on: M14
NCI-H522 = tested on: NCI-H522
OVCAR-4 = tested on: OVCAR-4
OVCAR-8 = tested on: OVCAR-8
RPMI-8226 = tested on: RPMI-8226
RXF 393 = tested on: RXF 393
SR = tested on: SR
U-251 = tested on: U-251
UACC-257 = tested on: UACC-257
UACC-62 = tested on: UACC-62
HCC 2998 = tested on: HCC 2998

Row | Structure (SMILES) | GI50 (786-0) | GI50 (DU-145) | GI50 (HCT-116) | GI50 (HOP-62) | GI50 (Hs-578T) | GI50 (IGROV-1) | GI50 (K562) | GI50 (LOX IMVI) | GI50 (M14) | GI50 (NCI-H522) | GI50 (OVCAR-4) | GI50 (OVCAR-8) | GI50 (RPMI-8226) | GI50 (RXF 393) | GI50 (SR) | GI50 (U-251) | GI50 (UACC-257) | GI50 (UACC-62) | GI50 (HCC 2998)
1 | Cc1cnc2cc(Cl)ccc2c1SCC(=O)O | > 100 µM (inactive) | > 100 µM (inactive) | > 100 µM (inactive) | > 100 µM (inactive) | 93.5 µM (inactive) | > 100 µM (inactive) | > 100 µM (inactive) | > 100 µM (inactive) | > 100 µM (inactive) | > 100 µM (inactive) | > 100 µM (inactive) | > 100 µM (inactive) | > 100 µM (inactive) | > 100 µM (inactive) | > 100 µM (inactive) | > 100 µM (inactive) | > 100 µM (inactive) | > 100 µM (inactive) | 
2 | Cc1ccc(S(=O)(=O)c2ccc([N+](=O)[O-])o2)cc1 | 1.67 µM (inactive) | 3.66 µM (inactive) | 1.64 µM (inactive) | 17.7 µM (inactive) | 2.53 µM (inactive) | 1.55 µM (inactive) | 1.23 µM (inactive) | 1.14 µM (inactive) | 1.83 µM (inactive) | 0.185 µM (active) | 2.27 µM (inactive) | 0.906 µM (active) | 1.65 µM (inactive) | 1.62 µM (inactive) |  | 5.48 µM (inactive) | 1.87 µM (inactive) | 2.32 µM (inactive) | 4.83 µM (inactive)
3 | O=C(O)CSc1ncccc1[N+](=O)[O-] | > 100 µM (inactive) | > 100 µM (inactive) | > 100 µM (inactive) | > 100 µM (inactive) | > 100 µM (inactive) | > 100 µM (inactive) | > 100 µM (inactive) | > 100 µM (inactive) | > 100 µM (inactive) | > 100 µM (inactive) | > 100 µM (inactive) | > 100 µM (inactive) |  | > 100 µM (inactive) | > 100 µM (inactive) | > 100 µM (inactive) | > 100 µM (inactive) | > 100 µM (inactive) | 
4 | CCCc1cn2c(/C=N/NC(=N)N)c(-c3cc([N+](=O)[O-])c(Cl)cc3Cl)nc2s1 | 1.58 µM (inactive) | 1.82 µM (inactive) | 1.32 µM (inactive) | 1.58 µM (inactive) | 1.85 µM (inactive) | 1.69 µM (inactive) | 1.23 µM (inactive) | 1.41 µM (inactive) | 1.74 µM (inactive) | 2.18 µM (inactive) | 1.46 µM (inactive) | 1.54 µM (inactive) | 1.32 µM (inactive) | 1.9 µM (inactive) | 1.45 µM (inactive) | 1.58 µM (inactive) | 1.66 µM (inactive) | 1.77 µM (inactive) | 
5 | N=c1oc2cc(O)ccc2cc1C(=O)NCc1ccccc1 | 32.1 µM (inactive) | 16.6 µM (inactive) | 22.2 µM (inactive) | 31.1 µM (inactive) | 15.3 µM (inactive) | 21.3 µM (inactive) | 10.3 µM (inactive) | 29.5 µM (inactive) | 34.7 µM (inactive) | 16.3 µM (inactive) | 31.6 µM (inactive) | 27.4 µM (inactive) | 10.7 µM (inactive) | 19.5 µM (inactive) | 11.9 µM (inactive) | 18.7 µM (inactive) | 44.7 µM (inactive) |  | 
6 | CC(C)(C)c1ccc2c(c1)C#Cc1cc3c(cc1OCCCO2)C#Cc1cc(C(C)(C)C)ccc1OCCCO3 | > 100 µM (inactive) | > 100 µM (inactive) | > 100 µM (inactive) | > 100 µM (inactive) | > 100 µM (inactive) | > 100 µM (inactive) | > 100 µM (inactive) | > 100 µM (inactive) | > 100 µM (inactive) | > 100 µM (inactive) | > 100 µM (inactive) | > 100 µM (inactive) | > 100 µM (inactive) | > 100 µM (inactive) |  | > 100 µM (inactive) | > 100 µM (inactive) | > 100 µM (inactive) | > 100 µM (inactive)
7 | CCCCCCSc1nc(COC(=O)NC)c(COC(=O)NC)n1C | > 100 µM (inactive) | > 100 µM (inactive) | > 100 µM (inactive) | > 100 µM (inactive) | > 100 µM (inactive) | > 100 µM (inactive) | > 100 µM (inactive) | > 100 µM (inactive) | > 100 µM (inactive) | > 100 µM (inactive) | > 100 µM (inactive) | > 100 µM (inactive) | > 100 µM (inactive) |  | > 100 µM (inactive) | > 100 µM (inactive) | > 100 µM (inactive) | > 100 µM (inactive) | 
8 | CC1(C)CC2C(/C1=N/O)C1(C)CCCC2(C)C1O (stereo not drawn) | > 100 µM (inactive) | > 100 µM (inactive) | > 100 µM (inactive) | > 100 µM (inactive) | > 100 µM (inactive) | > 100 µM (inactive) | > 100 µM (inactive) | > 100 µM (inactive) | > 100 µM (inactive) | > 100 µM (inactive) | > 100 µM (inactive) | > 100 µM (inactive) | > 100 µM (inactive) |  | > 100 µM (inactive) | > 100 µM (inactive) | > 100 µM (inactive) | > 100 µM (inactive) | 
9 | COC(=O)[C@@H]1[C@H]2CC[C@]3(C)[C@@H](OC(C)=O)CC[C@H]3[C@@H]2CC[C@H]1C1(C)SCCS1 | 22.7 µM (inactive) | 35.9 µM (inactive) | 19.6 µM (inactive) | 23.1 µM (inactive) | 23.7 µM (inactive) | 49.2 µM (inactive) | 36.1 µM (inactive) | 19.4 µM (inactive) | 21.5 µM (inactive) | 30.5 µM (inactive) | 25.1 µM (inactive) | 25 µM (inactive) | 19.3 µM (inactive) | 20.5 µM (inactive) |  | 23.6 µM (inactive) | 25.2 µM (inactive) | 28.2 µM (inactive) | 35.6 µM (inactive)
10 | CN(C)CCCNC(=O)c1cc2/c(=C\c3ccc(N(C)C)cc3)c3ccccc3n2[n+]1C | 52.8 µM (inactive) | > 100 µM (inactive) | 26.2 µM (inactive) | 48.3 µM (inactive) | > 100 µM (inactive) | 15.7 µM (inactive) | 8.83 µM (inactive) | 42 µM (inactive) | 21.4 µM (inactive) | 2.64 µM (inactive) | 8.77 µM (inactive) | 40.8 µM (inactive) | 20.4 µM (inactive) | > 100 µM (inactive) | 23.3 µM (inactive) | 22.4 µM (inactive) | 21.4 µM (inactive) | 17.3 µM (inactive) | 
11 | Clc1nc(Nc2nc3ccccc3[nH]2)nc(Cl)c1Cc1ccccc1 | 45.9 µM (inactive) | > 100 µM (inactive) | > 100 µM (inactive) |  | 32.4 µM (inactive) | 97.3 µM (inactive) | > 100 µM (inactive) |  | > 100 µM (inactive) | 37 µM (inactive) | 36.1 µM (inactive) | > 100 µM (inactive) | > 100 µM (inactive) | > 100 µM (inactive) | > 100 µM (inactive) | 29.6 µM (inactive) | > 100 µM (inactive) | 72.4 µM (inactive) | 
12 | CCn1ncc2c1nc(-c1ccccc1)c[n+]2[O-] | > 100 µM (inactive) | 5.82 µM (inactive) | 63.7 µM (inactive) | 2.22 µM (inactive) | 61.1 µM (inactive) | > 100 µM (inactive) | > 100 µM (inactive) | 7.01 µM (inactive) | 77.6 µM (inactive) | 90.4 µM (inactive) |  | 75 µM (inactive) | > 100 µM (inactive) |  | > 100 µM (inactive) |  | > 100 µM (inactive) | 6.15 µM (inactive) | 
13 | O=C1C=CC(O)C2C1CC13SSC4(CC5C(=O)C=CC(O)C5N4C1=O)C(=O)N23 (stereo not drawn) | 0.0396 µM (active) | 0.354 µM (active) | < 0.0151 µM (active) | 0.324 µM (active) | 0.5 µM (active) | 1.37 µM (inactive) | 0.0358 µM (active) | 0.0579 µM (active) | 0.157 µM (active) | 0.0453 µM (active) | 0.476 µM (active) | 0.0698 µM (active) | < 0.01 µM (active) | 0.483 µM (active) | < 0.01 µM (active) | 0.234 µM (active) | 0.183 µM (active) | 0.208 µM (active) | 
14 | COc1ccc(/C=C2\N=C3Sc4c([nH]cnc4=O)N3C2=O)cc1 | > 100 µM (inactive) | > 100 µM (inactive) | > 100 µM (inactive) | > 100 µM (inactive) | > 100 µM (inactive) | > 100 µM (inactive) | > 100 µM (inactive) | > 100 µM (inactive) | > 100 µM (inactive) | > 100 µM (inactive) | > 100 µM (inactive) | > 100 µM (inactive) | > 100 µM (inactive) | > 100 µM (inactive) |  | > 100 µM (inactive) | > 100 µM (inactive) |  | 13.1 µM (inactive)
15 | COC(=O)CNC(=O)C(Cc1ccccc1)NC(=O)C(CCSC)NC(=O)C(Cc1ccc(O)cc1)NC(=O)OC(C)(C)C (stereo not drawn) (Boc-YMFG-OMe; configuration not given here) | > 100 µM (inactive) | > 100 µM (inactive) | 54.3 µM (inactive) | 31.5 µM (inactive) | > 100 µM (inactive) | 62.7 µM (inactive) | 49.8 µM (inactive) | 18.5 µM (inactive) | > 100 µM (inactive) | 19.4 µM (inactive) | > 100 µM (inactive) | 39.9 µM (inactive) | 22.3 µM (inactive) | 47.6 µM (inactive) |  | 41.6 µM (inactive) | 19.1 µM (inactive) | 30.1 µM (inactive) | 23.2 µM (inactive)
16 | O=c1[nH]c(=O)n([C@H]2C[C@H](O)[C@@H](CO)O2)cc1Br [BROXURIDINE] | > 100 µM (inactive) | > 100 µM (inactive) | > 94 µM (inactive) | > 100 µM (inactive) | > 100 µM (inactive) | > 59.2 µM (inactive) | > 72.4 µM (inactive) | > 97.1 µM (inactive) | > 86.7 µM (inactive) | > 78.3 µM (inactive) | > 100 µM (inactive) | > 100 µM (inactive) | 49.9 µM (inactive) | > 100 µM (inactive) |  | > 100 µM (inactive) | > 100 µM (inactive) | > 100 µM (inactive) | > 60.3 µM (inactive)
